Measured values published in US20120171126A1, “NOVEL [3,2-c] HETEROARYL STEROIDS AS GLUCOCORTICOID RECEPTOR AGONISTS COMPOSITIONS AND USES THEREOF” (priority 2009, published 2012).

Test system: IL-8
Experiment: Glucocorticoid transrepression assay, IL-8 inhibition (TR)
Assay type: cell-based
Conditions: Homo sapiens, Table 1, NCl-H292 cells, TNFα 10 ng/ml; for Emax: read-out: IL-8 inhibition (TR) Emax % inhibition
Method: Human Lung epithelial cell line NCl-H292 cells were dissociated from stock flask using 0.05% trypsin/0.53 mM EDTA. Cells were suspended in complete medium and counted. Cells were plated in 96-well flat-bottom plates at 20K cells /well in 0.2 ml/well. Plates were incubated for 24-48 hours until cells were between 75-90% confluent. Medium was aspirated and replaced with medium containing various concentrations of steroids or antagonists. After 1 hour incubation at 37°, TNFα (10 ng/ml final concentration in 0.2 ml) was added and the cells incubated overnight. Control wells with and without TNF were included on each plate, as well as wells with TNF in addition to a maximum (10 μM) concentration of dexamethasone. The cell culture medium was sampled and IL-6 and IL-8 cytokine production was measured using the MSD Multi-Spot immunoassay.

Work on `CC12Cc3cnn(C(C)(C)C)c3C=C1CCC1C2[C@@H](O)CC2(C)C1CC[C@]2(O)C(=O)CSc1nc2cccnc2s1` (stereo partly drawn) [Compound 64] yielded an Emax of less than 60%.
In the case of `CC12Cc3cnn(C(C)(C)C)c3C=C1CCC1C2[C@@H](O)CC2(C)C1CC[C@]2(O)C(=O)CSc1nc2ncccc2o1` (stereo partly drawn) [Compound 65], the Emax is reported as less than 60%.
For `CC12Cc3cnn(C(C)(C)C)c3C=C1CCC1C2[C@@H](O)CC2(C)C1CC[C@]2(O)C(=O)CSc1ccccn1` (stereo partly drawn) [Compound 66], the Emax was less than 60%.
Compound `CC12Cc3cnn(C(C)(C)C)c3C=C1CCC1C2[C@@H](O)CC2(C)C1CC[C@]2(O)C(=O)CSc1ccc2ccccc2n1` (stereo partly drawn) [Compound 67] has an Emax of less than 60%.
`CC12Cc3cnn(C(C)(C)C)c3C=C1CCC1C2[C@@H](O)CC2(C)C1CC[C@]2(O)C(=O)CSc1nc2ccccc2[nH]1` (stereo partly drawn) [Compound 68] was tested, and the Emax was less than 60%.
With `CC12Cc3cnn(C4CCOCC4)c3C=C1CCC1C2[C@@H](O)CC2(C)C1CC[C@]2(O)C(=O)CSc1nc2ccccc2s1` (stereo partly drawn) [Compound 69] the IC50 was 66 to 400 nM and the Emax was 70 to 80%.
Compound `Cn1c(SCC(=O)[C@@]2(O)CCC3C4CCC5=Cc6c(cnn6C6CCOCC6)CC5(C)C4[C@@H](O)CC32C)nc2ccccc21` (stereo partly drawn) [Compound 70] has an IC50 of 21 to 65 nM and an Emax greater than 80%.
For `CC12Cc3cnn(C4CCOCC4)c3C=C1CCC1C2[C@@H](O)CC2(C)C1CC[C@]2(O)C(=O)CSc1nc2ncccc2o1` (stereo partly drawn) [Compound 72], the IC50 was 21 to 65 nM and the Emax was greater than 80%.
Work on `CC12Cc3cnn(C4CCOCC4)c3C=C1CCC1C2[C@@H](O)CC2(C)C1CC[C@]2(O)C(=O)CSc1ccccn1` (stereo partly drawn) [Compound 73] yielded an IC50 of 0.06 to 20 nM and an Emax greater than 80%.
With `CC12Cc3cnn(C4CCOCC4)c3C=C1CCC1C2[C@@H](O)CC2(C)C1CC[C@]2(O)C(=O)CSc1nc2ccccc2[nH]1` (stereo partly drawn) [Compound 75] the Emax was less than 60%.
In the case of `Cc1ccccc1-n1ncc2c1C=C1CCC3C([C@@H](O)CC4(C)C3CC[C@]4(O)C(=O)CSc3nc4ccccc4s3)C1(C)C2` (stereo partly drawn) [Compound 76], the Emax is reported as less than 60%.
`Cc1ccccc1-n1ncc2c1C=C1CCC3C([C@@H](O)CC4(C)C3CC[C@]4(O)C(=O)CSc3nc4ccccc4n3C)C1(C)C2` (stereo partly drawn) [Compound 77] showed an Emax of less than 60%.
Work on `Cc1ccccc1-n1ncc2c1C=C1CCC3C([C@@H](O)CC4(C)C3CC[C@]4(O)C(=O)CSc3nc4cccnc4s3)C1(C)C2` (stereo partly drawn) [Compound 78] yielded an Emax of less than 60%.
Compound `Cc1ccccc1-n1ncc2c1C=C1CCC3C([C@@H](O)CC4(C)C3CC[C@]4(O)C(=O)CSc3nc4ncccc4o3)C1(C)C2` (stereo partly drawn) [Compound 79] has an Emax of less than 60%.
For `Cc1ccccc1-n1ncc2c1C=C1CCC3C([C@@H](O)CC4(C)C3CC[C@]4(O)C(=O)CSc3ccccn3)C1(C)C2` (stereo partly drawn) [Compound 80], the Emax was less than 60%.
`Cc1ccccc1-n1ncc2c1C=C1CCC3C([C@@H](O)CC4(C)C3CC[C@]4(O)C(=O)CSc3ccc4ccccc4n3)C1(C)C2` (stereo partly drawn) [Compound 81] was tested, and the Emax was less than 60%.
`Cc1ccccc1-n1ncc2c1C=C1CCC3C([C@@H](O)CC4(C)C3CC[C@]4(O)C(=O)CSc3nc4ccccc4[nH]3)C1(C)C2` (stereo partly drawn) [Compound 82] gave an Emax of less than 60%.
For `CC12Cc3cnn(-c4nc5ccccc5[nH]4)c3C=C1CCC1C2[C@@H](O)CC2(C)C1CC[C@]2(O)C(=O)CSc1nc2ccccc2s1` (stereo partly drawn) [Compound 83], the Emax was less than 60%.
`Cn1c(SCC(=O)[C@@]2(O)CCC3C4CCC5=Cc6c(cnn6-c6nc7ccccc7[nH]6)CC5(C)C4[C@@H](O)CC32C)nc2ccccc21` (stereo partly drawn) [Compound 84] showed an Emax of less than 60%.
With `COc1ccc(-n2ncc3c2C=C2CCC4C([C@@H](O)CC5(C)C4CC[C@]5(O)C(=O)CSc4nc5ccccc5s4)C2(C)C3)cc1` (stereo partly drawn) [Compound 85] the IC50 was 66 to 400 nM and the Emax was 70 to 80%.
In the case of `COc1ccc(-n2ncc3c2C=C2CCC4C([C@@H](O)CC5(C)C4CC[C@]5(O)C(=O)CSc4nc5ccccc5n4C)C2(C)C3)cc1` (stereo partly drawn) [Compound 86], the IC50 is reported as 66 to 400 nM and the Emax is reported as 70 to 80%.
In the case of `COc1ccc(-n2ncc3c2C=C2CCC4C([C@@H](O)CC5(C)C4CC[C@]5(O)C(=O)CSc4nc5cccnc5s4)C2(C)C3)cc1` (stereo partly drawn) [Compound 87], the IC50 is reported as 66 to 400 nM and the Emax is reported as 60 to 70%.
`COc1ccc(-n2ncc3c2C=C2CCC4C([C@@H](O)CC5(C)C4CC[C@]5(O)C(=O)CSc4ccccn4)C2(C)C3)cc1` (stereo partly drawn) [Compound 88] was tested, and the IC50 was 66 to 400 nM and the Emax was 60 to 70%.
In the case of `COc1ccc(-n2ncc3c2C=C2CCC4C([C@@H](O)CC5(C)C4CC[C@]5(O)C(=O)CSc4ccc5ccccc5n4)C2(C)C3)cc1` (stereo partly drawn) [Compound 89], the Emax is reported as less than 60%.
In the case of `CC(C)(C)c1ccc(-n2ncc3c2C=C2CCC4C([C@@H](O)CC5(C)C4CC[C@]5(O)C(=O)CSc4nc5ccccc5s4)C2(C)C3)cc1` (stereo partly drawn) [Compound 90], the Emax is reported as less than 60%.
Work on `Cn1c(SCC(=O)[C@@]2(O)CCC3C4CCC5=Cc6c(cnn6-c6ccc(C(C)(C)C)cc6)CC5(C)C4[C@@H](O)CC32C)nc2ccccc21` (stereo partly drawn) [Compound 91] yielded an Emax of less than 60%.
With `CC(C)(C)c1ccc(-n2ncc3c2C=C2CCC4C([C@@H](O)CC5(C)C4CC[C@]5(O)C(=O)CSc4nc5cccnc5s4)C2(C)C3)cc1` (stereo partly drawn) [Compound 92] the Emax was less than 60%.
Work on `CC(C)(C)c1ccc(-n2ncc3c2C=C2CCC4C([C@@H](O)CC5(C)C4CC[C@]5(O)C(=O)CSc4ccccn4)C2(C)C3)cc1` (stereo partly drawn) [Compound 93] yielded an Emax of less than 60%.
`CC12Cc3cnn(-c4ccc(F)cc4)c3C=C1CCC1C2[C@@H](O)CC2(C)C1CC[C@]2(O)C(=O)CSc1nc2ccc(O)cc2[nH]1` (stereo partly drawn) [Compound 94] showed an IC50 of 0.06 to 20 nM and an Emax greater than 80%.
`CC12Cc3cnn(-c4ccc(F)cc4)c3C=C1CCC1C2[C@@H](O)CC2(C)C1CC[C@]2(O)C(=O)CSc1nc(-c2ccccc2)c(-c2ccccc2)o1` (stereo partly drawn) [Compound 96] gave an IC50 of 66 to 400 nM and an Emax greater than 80%.
Compound `Cc1ccnc(SCC(=O)[C@@]2(O)CCC3C4CCC5=Cc6c(cnn6-c6ccc(F)cc6)CC5(C)C4[C@@H](O)CC32C)n1` (stereo partly drawn) [Compound 97] has an IC50 of 0.06 to 20 nM and an Emax greater than 80%.
In the case of `CC12Cc3cnn(-c4ccc(F)cc4)c3C=C1CCC1C2[C@@H](O)CC2(C)C1CC[C@]2(O)C(=O)CSc1ncnc2ccccc12` (stereo partly drawn) [Compound 98], the IC50 is reported as 0.06 to 20 nM and the Emax is reported as greater than 80%.
Work on `CC12Cc3cnn(-c4ccc(F)cc4)c3C=C1CCC1C2[C@@H](O)CC2(C)C1CC[C@]2(OC(=O)c1ccco1)C(=O)CSc1nc2ncccc2o1` (stereo partly drawn) [Compound 99] yielded an IC50 of 0.06 to 20 nM and an Emax greater than 80%.
Compound `Cn1nnnc1SCC(=O)[C@@]1(O)CCC2C3CCC4=Cc5c(cnn5-c5ccc(F)cc5)CC4(C)C3[C@@H](O)CC21C` (stereo partly drawn) [Compound 100] has an IC50 of 0.06 to 20 nM and an Emax greater than 80%.
Compound `Cc1cc(C)nc(SCC(=O)[C@@]2(O)CCC3C4CCC5=Cc6c(cnn6-c6ccc(F)cc6)CC5(C)C4[C@@H](O)CC32C)n1` (stereo partly drawn) [Compound 101] has an IC50 of 0.06 to 20 nM and an Emax greater than 80%.
Compound `CC12Cc3cnn(-c4ccc(F)cc4)c3C=C1CCC1C2[C@@H](O)CC2(C)C1CC[C@]2(O)C(=O)CSc1nc2ccc(N)cc2s1` (stereo partly drawn) [Compound 102] has an IC50 of 0.06 to 20 nM and an Emax greater than 80%.
`COc1ccc2nc(SCC(=O)[C@@]3(O)CCC4C5CCC6=Cc7c(cnn7-c7ccc(F)cc7)CC6(C)C5[C@@H](O)CC43C)sc2c1` (stereo partly drawn) [Compound 103] gave an IC50 of 0.06 to 20 nM and an Emax greater than 80%.
Work on `CC12Cc3cnn(-c4ccc(F)cc4)c3C=C1CCC1C2[C@@H](O)CC2(C)C1CC[C@]2(O)C(=O)COc1nc2ccccc2o1` (stereo partly drawn) [Compound 104] yielded an IC50 of 0.06 to 20 nM and an Emax greater than 80%.
For `CC12Cc3cnn(-c4ccc(F)cc4)c3C=C1CCC1C2[C@@H](O)CC2(C)C1CC[C@]2(O)C(=O)COc1nc2ccccc2[nH]1` (stereo partly drawn) [Compound 111], the IC50 was 0.06 to 20 nM and the Emax was greater than 80%.
With `Cn1c(OCC(=O)[C@@]2(O)CCC3C4CCC5=Cc6c(cnn6-c6ccc(F)cc6)CC5(C)C4[C@@H](O)CC32C)nc2ccccc21` (stereo partly drawn) [Compound 112] the IC50 was 0.06 to 20 nM and the Emax was greater than 80%.
For `CC12Cc3cnn(-c4ccc(F)cc4)c3C=C1CCC1C2[C@@H](O)CC2(C)C1CC[C@]2(O)C(=O)COc1nccc2ccccc12` (stereo partly drawn) [Compound 114], the IC50 was 0.06 to 20 nM and the Emax was greater than 80%.
In the case of `CC12Cc3cnn(-c4ccccc4)c3C=C1CCC1C2[C@@H](O)CC2(C)C1CC[C@]2(O)C(=O)COc1ccc2ccccc2c1` (stereo partly drawn) [Compound 117], the IC50 is reported as 0.06 to 20 nM and the Emax is reported as greater than 80%.
`CC12Cc3cnn(-c4ccccc4)c3C=C1CCC1C2[C@@H](O)CC2(C)C1CC[C@]2(O)C(=O)COc1nc2ccccc2[nH]1` (stereo partly drawn) [Compound 118] showed an IC50 of 0.06 to 20 nM and an Emax greater than 80%.
With `Cn1c(OCC(=O)[C@@]2(O)CCC3C4CCC5=Cc6c(cnn6-c6ccccc6)CC5(C)C4[C@@H](O)CC32C)nc2ccccc21` (stereo partly drawn) [Compound 119] the IC50 was 0.06 to 20 nM and the Emax was greater than 80%.
With `CC12Cc3cnn(-c4ccccc4)c3C=C1CCC1C2[C@@H](O)CC2(C)C1CC[C@]2(O)C(=O)COc1nc2ccccc2s1` (stereo partly drawn) [Compound 120] the IC50 was 0.06 to 20 nM and the Emax was greater than 80%.
For `CC12Cc3cn(-c4ccccc4)nc3C=C1CCC1C2[C@@H](O)CC2(C)C1CC[C@]2(O)C(=O)COc1nc2ccccc2s1` (stereo partly drawn) [Compound 121], the Emax was less than 60%.
`CC12Cc3cnn(-c4ccccc4)c3C=C1CCC1C2[C@@H](O)CC2(C)C1CC[C@]2(O)C(=O)COc1ccccn1` (stereo partly drawn) [Compound 122] showed an IC50 of 0.06 to 20 nM and an Emax greater than 80%.
Compound `Cn1c(SCC(=O)[C@@]2(O)CCC3C4CCC5=Cc6c(cnn6-c6ccc(F)cc6)CC5(C)C4[C@@H](O)CC32C)nc2cc(S(N)(=O)=O)ccc21` (stereo partly drawn) [Compound 123] has an IC50 of 0.06 to 20 nM and an Emax greater than 80%.
Work on `CC12Cc3cnn(C4CCCCC4)c3C=C1CCC1C2[C@@H](O)CC2(C)C1CC[C@]2(O)C(=O)CSc1ncccn1` (stereo partly drawn) [Compound 126] yielded an IC50 of 0.06 to 20 nM and an Emax greater than 80%.
With `Cc1nc(SCC(=O)[C@@]2(O)CCC3C4CCC5=Cc6c(cnn6C6CCCCC6)CC5(C)C4[C@@H](O)CC32C)sc1C` (stereo partly drawn) [Compound 130] the IC50 was 0.06 to 20 nM and the Emax was greater than 80%.
In the case of `CC12Cc3cnn(C4CCCCC4)c3C=C1CCC1C2[C@@H](O)CC2(C)C1CC[C@]2(O)C(=O)CSc1nc(-c2ccccc2)cs1` (stereo partly drawn) [Compound 133], the IC50 is reported as 21 to 65 nM and the Emax is reported as greater than 80%.
